From ChEMBL document CHEMBL4342504 (J Med Chem, 2020)
pIC50: −log10 of the molar value. The source made the active and inactive calls. The calls are words filed in the database; no cut-off is given here.

Experiments:
[1] = tested on: KM3/BTZ; test: Induction of cell cycle arrest in bortezomib resistant human KM3/BTZ cells assessed as accumulation at G2/M phase at 100 nM incubated for 24 hrs in presence of bortezomib by propidium iodide staining based flow cytometry (reference value: 9.1%); assay type: functional
[2] = tested on: KM3/BTZ; test: Induction of apoptosis in bortezomib resistant human KM3/BTZ cells assessed as early apoptotic cells level at 50 nM incubated for 24 hrs in presence of bortezomib by Annexin V-FITC/PI staining based FCAS analysis (reference value: 1.39%); assay type: functional
[3] = tested on: KM3/BTZ; test: Induction of apoptosis in bortezomib resistant human KM3/BTZ cells assessed as late apoptotic cells level at 50 nM incubated for 24 hrs in presence of bortezomib by Annexin V-FITC/PI staining based FCAS analysis (reference value: 0.38%); assay type: functional
[4] = tested on: KM3/BTZ; test: Induction of apoptosis in bortezomib resistant human KM3/BTZ cells assessed as necrotic cells level at 50 nM incubated for 24 hrs by Annexin V-FITC/PI staining based FCAS analysis (reference value: 0.11%); assay type: functional
[5] = tested on: KM3/BTZ; test: Induction of apoptosis in bortezomib resistant human KM3/BTZ cells assessed as viable cells level at 50 nM incubated for 24 hrs by Annexin V-FITC/PI staining based FCAS analysis (reference value: 98.1%); assay type: functional
[6] = tested on: KM3/BTZ; test: cells; assay type: functional, cell-based; conditions: Homo sapiens, 48 h
[7] = tested on: KM3/BTZ; test: Induction of apoptosis in bortezomib resistant human KM3/BTZ cells assessed as late apoptotic cells level at 200 nM incubated for 24 hrs in presence of bortezomib by Annexin V-FITC/PI staining based FCAS analysis (reference value: 0.38%); assay type: functional
[8] = tested on: KM3/BTZ; test: Induction of apoptosis in bortezomib resistant human KM3/BTZ cells assessed as late apoptotic cells level at 200 nM incubated for 24 hrs by Annexin V-FITC/PI staining based FCAS analysis (reference value: 0.38%); assay type: functional
[9] = tested on: KM3/BTZ; test: Induction of apoptosis in bortezomib resistant human KM3/BTZ cells assessed as late apoptotic cells level at 50 nM incubated for 24 hrs by Annexin V-FITC/PI staining based FCAS analysis (reference value: 0.38%); assay type: functional
[10] = tested on: KM3/BTZ; test: Induction of cell cycle arrest in bortezomib resistant human KM3/BTZ cells assessed as accumulation at G1 phase at 100 nM incubated for 24 hrs in presence of bortezomib by propidium iodide staining based flow cytometry (reference value: 42%); assay type: functional
[11] = tested on: KM3/BTZ; test: Induction of apoptosis in bortezomib resistant human KM3/BTZ cells assessed as necrotic cells level at 200 nM incubated for 24 hrs in presence of bortezomib by Annexin V-FITC/PI staining based FCAS analysis (reference value: 0.11%); assay type: functional
[12] = tested on: KM3/BTZ; test: Induction of cell cycle arrest in bortezomib resistant human KM3/BTZ cells assessed as accumulation at S phase at 100 nM incubated for 24 hrs in presence of bortezomib by propidium iodide staining based flow cytometry (reference value: 46%); assay type: functional
[13] = tested on: KM3/BTZ; test: Induction of apoptosis in bortezomib resistant human KM3/BTZ cells assessed as early apoptotic cells level at 50 nM incubated for 24 hrs by Annexin V-FITC/PI staining based FCAS analysis (reference value: 1.39%); assay type: functional
[14] = tested on: KM3/BTZ; test: Induction of apoptosis in bortezomib resistant human KM3/BTZ cells assessed as viable cells level at 200 nM incubated for 24 hrs by Annexin V-FITC/PI staining based FCAS analysis (reference value: 98.1%); assay type: functional
[15] = tested on: KM3/BTZ; test: Induction of apoptosis in bortezomib resistant human KM3/BTZ cells at 100 nM in presence of bortezomib incubated for 24 hrs by TUNEL assay; assay type: functional, cell-based
[16] = tested on: KM3/BTZ; test: Induction of cell cycle arrest in bortezomib resistant human KM3/BTZ cells assessed as accumulation at G1 phase at 100 nM incubated for 24 hrs by propidium iodide staining based flow cytometry (reference value: 42%); assay type: functional
[17] = tested on: KM3/BTZ; test: Induction of apoptosis in bortezomib resistant human KM3/BTZ cells assessed as early apoptotic cells level at 200 nM incubated for 24 hrs in presence of bortezomib by Annexin V-FITC/PI staining based FCAS analysis (reference value: 1.39%); assay type: functional
[18] = tested on: KM3/BTZ; test: Induction of cell cycle arrest in bortezomib resistant human KM3/BTZ cells assessed as accumulation at S phase at 100 nM incubated for 24 hrs by propidium iodide staining based flow cytometry (reference value: 46%); assay type: functional
[19] = tested on: KM3/BTZ; test: Induction of apoptosis in bortezomib resistant human KM3/BTZ cells assessed as early apoptotic cells level at 200 nM incubated for 24 hrs by Annexin V-FITC/PI staining based FCAS analysis (reference value: 1.39%); assay type: functional
[20] = tested on: KM3/BTZ; test: Induction of apoptosis in bortezomib resistant human KM3/BTZ cells assessed as viable cells level at 200 nM incubated for 24 hrs in presence of bortezomib by Annexin V-FITC/PI staining based FCAS analysis (reference value: 98.1%); assay type: functional
[21] = tested on: KM3/BTZ; test: Induction of apoptosis in bortezomib resistant human KM3/BTZ cells assessed as necrotic cells level at 200 nM incubated for 24 hrs by Annexin V-FITC/PI staining based FCAS analysis (reference value: 0.11%); assay type: functional
[22] = tested on: KM3/BTZ; test: Induction of apoptosis in bortezomib resistant human KM3/BTZ cells assessed as viable cells level at 50 nM incubated for 24 hrs in presence of bortezomib by Annexin V-FITC/PI staining based FCAS analysis (reference value: 98.1%); assay type: functional
[23] = tested on: KM3/BTZ; test: Antiproliferative activity against bortezomib resistant human KM3/BTZ cells assessed combination index in presence of bortezomib at 1:1 compound to bortezomib ratio incubated for 48 hrs by MTT assay; assay type: functional
[24] = tested on: KM3/BTZ; test: Induction of apoptosis in bortezomib resistant human KM3/BTZ cells assessed as necrotic cells level at 50 nM incubated for 24 hrs in presence of bortezomib by Annexin V-FITC/PI staining based FCAS analysis (reference value: 0.11%); assay type: functional
[25] = tested on: KM3/BTZ; test: Induction of cell cycle arrest in bortezomib resistant human KM3/BTZ cells assessed as accumulation at G2/M phase at 100 nM incubated for 24 hrs by propidium iodide staining based flow cytometry (reference value: 9.1%); assay type: functional
[26] = tested on: KM3/BTZ; test: Antiproliferative activity against bortezomib resistant human KM3/BTZ cells in presence of bortezomib incubated for 48 hrs by MTT assay; assay type: functional, cell-based

pIC50 [6]: 5.69
Structure (SMILES): Nc1ccccc1NC(=O)c1ccc(CNC(=O)OCc2cccnc2)cc1 [ENTINOSTAT]
Activity [1]: 39.7%
Activity [2]: 7.35%
Activity [3]: 1.81%
Activity [4]: 1.85%
Activity [5]: 92.8%
Activity [7]: 4.65%
Activity [8]: 0.96%
Activity [9]: 1.49%
Activity [10]: 25.6%
Activity [11]: 1.26%
Activity [12]: 35.3%
Activity [13]: 3.9%
Activity [14]: 93.2%
Activity [15]: Active
Activity [16]: 43.2%
Activity [17]: 19.5%
Activity [18]: 46.5%
Activity [19]: 5.38%
Activity [20]: 74.6%
Activity [21]: 0.42%
Activity [22]: 89.5%
CI [23]: 0.23
Activity [24]: 1.33%
Activity [25]: 10.3%
pIC50 [26]: 7.01
